Reference: patent publication US8685372B2, “Peptides and aptamers for targeting of neuron or nerves” (The Regents of the University of California, priority 2009, dated 2014)
Blank lines part the entries; values can stand above or below the compound they belong to. Residues, ends and D or L forms follow the SMILES beside them. *: point of attachment. 5FAM = O=C1OC2(c3ccc(O)cc3Oc3cc(O)ccc32)c2ccc(C(=O)*)cc21

Key:
[1] = Peptide biodistribution and metabolism (organ fluorescence, LC-MS and MALDI of urine); format: in vivo, mice
Description: (§1) To evaluate the biodistribution of the peptide following systemic administration, organs were harvested from mice treated with SEQ ID NO:4 and fluorescence uptake was evaluated. […] To evaluate the metabolism of the peptide as it passed through the renal system, liquid chromatography-mass spectrometry (LC-MS, Agilent) tracing was used to compare urine obtained from mice injected with SEQ ID NO:25 or SEQ ID NO:31 intravenously versus urine from normal mice spiked with the native SEQ ID NO:25 or SEQ ID NO:31. […] Next, matrix-assisted. laser desorption/ionization (MALDI) was used to evaluate the nature of the modification to the peptide as it was metabolized.
as §1, with “NO:25 and” for “NO:25 or”, “ID NO:3” for “ID NO:31”, “ID NO:25.” for “ID NO:25 or SEQ ID NO:31.”, “Next, matrix-assisted” for “Next, matrix-assisted.”

sciatic nerves [2] = experiment: In vivo nerve labeling with fluorescently labeled peptides (nerve versus adjacent non-nerve tissue); set-up: species or system mice
[3] = tested on: human recurrent laryngeal nerve; experiment: Human nerve labeling: resected recurrent laryngeal nerves and adjacent muscle incubated with peptide; format: binding
Description: To evaluate whether or not SEQ ID NO:25 could selectively bind human nerves as compared to non-nerve tissue, freshly resected recurrent laryngeal nerves and adjacent muscle obtained from patients undergoing total laryngectomy for laryngeal cancer were incubated with SEQ ID NO:25. […] This binding pattern is similar to the binding pattern observed in mice.
To evaluate whether or not SEQ ID NO:25 could selectively bind human nerves as compared to non-nerve tissue, freshly resected recurrent laryngeal nerves and adjacent muscle obtained from patients undergoing total laryngectomy for laryngeal cancer were incubated with SEQ ID NO:25 at […] for 15 minutes and washed in saline for 15 minutes each. The nerve and muscle segments were then placed on a black non-fluorescent plate and imaged (Maestro, CRI). The nerve segments were then embedded in Tissue-Tek®, frozen and cryosectioned. 7-10 μm cryosections were then. imaged with standard fluorescence microscopy. Adjacent sections were stained with hematoxylin and eosin (H&E) and imaged.

sciatic nerve [4] = experiment: Effect of nerve injury (crush, devascularization) on labeling; format: in vivo, mice
Description: The ability of peptides to label peripheral nerves following nerve crush injury was evaluated in mice using SEQ ID NO:25. […] (Occasionally, nerve labeling immediately at the site of injury was slightly diminished compared to nerve labeling several centimeters away from the site of injury (FIG. 6D), but this observation was highly variable (FIGS. 6B,F) and not statistically significant (FIG. 6I)).
Wild type mice were anesthetized and the left sciatic nerve exposed and crushed with microforceps for 3-5 seconds. Muscular contractions during the crush after immediately afterwards were monitored to ensure uniformity of the injury. The skin incision was then closed and mice returned to their cages to recover. At varying times after crush injury, intravenous SEQ ID NO:25 (150 nmoles) was administered. Two to three hours after intravenous SEQ ID NO:25 treatment, the mice were anesthetized, bilateral sciatic nerves exposed and quantitative fluorescence microscopy was used to measure nerve fluorescence. Nerve and adjacent muscle fluorescence were measured using Image J software by measuring standardized boxed regions. Crushed and contralateral control nerve fluorescence were compared for each animal.

[5] = tested on: sciatic nerves and surrounding non-nerve tissue; format: in vivo, mice
Source text: To evaluate the time course of peptide binding to nerve tissue, sciatic nerves and surrounding non-nerve tissue in living mice were imaged before and after intravenous administration of SEQ ID NO:25, Prior to administration of SEQ ID NO: 25 (FIG. 3A), there was little contrast of the nerve (arrowheads) in relation to surrounding non-nerve tissue. Within seconds following intravenous administration of SEQ ID NO:25 (FIG. 3B), the fluorescent injectate could be seen leaking from capillaries (arrows), including capillaries associated with the sciatic nerves (insert). […] Useful contrast between nerve and surrounding muscle begins to develop by 2-3 hours after intravenous injection (FIG. 3E) and lasts several hours (FIG. 3F). […] Serum half-life was calculated at ˜10 minutes.
Female 8 week-old SKH1 mice were anesthetized with ketamine and midazolam and a skin incision was made over the dorsal surface of the hind legs and the sciatic nerves exposed. A preinjection image was taken a dissecting microscope (Lumar Zeiss) and a monochrome camera (Coolsnap). The mice were treated intravenously with […] of SEQ ID NO:25 via, tail vein injection. Sequential fluorescence imaging was then performed as described above: excitation 470/40 nm, emission 525/50 nm, exposure 15 milliseconds-5 seconds. Nerves and adjacent non-nerve tissue were delineated with Image J and relative fluorescence was measured. Quantification of fluorescence was then performed following subtraction of dark current and normalizing to a standard.

sciatic nerves [6] = experiment: In vivo nerve labeling with fluorescently labeled peptides (nerve versus adjacent non-nerve tissue); set-up: species or system mice; settings: for nerve to muscle contrast: FAM-labeled peptides intravenously
Description: To test the nerve binding affinity of each of the isolated peptide sequences in vivo, carboxyfluorescein (FAM)-labeled peptides were injected intravenously into living mice. Following a wash-out period, the contrast between nerve and muscle binding of the labeled peptides was evaluated.
Wild-type albino C57BL6 (Jackson Laboratory) or SKH1 (Charles River Laboratories) mice were treated intravenously with 150 nmoles of fluorescently labeled SEQ ID NO:4 via tail vein injection. Following a 2-3 hour wash-out period for SEQ ID NO:25 or 5-6 hours for SEQ ID NO:31, mice were anesthetized with ketamine and midazolam (80 mg/kg intraperitoneally), a skin incision was made over the dorsal surface of the hind, legs and the sciatic nerves exposed bilaterally. […] Nerves and adjacent non-nerve tissue was delineated with Image J and relative fluorescence was measured. Following background subtraction using dark current measurements and measurements of a standard, the ratios of peptide binding to nerve versus adjacent non-nerve tissue were calculated.

[7] = Generalized toxicity: activity, behavior and weight gain; format: in vivo, mice; settings: single intravenous injection of 15-5,000 nmoles, up to 8 weeks of monitoring
Description: To evaluate generalized toxicity following peptide administration, the generalized activity, behavior and weight gain of mice after a single intravenous injection of 15-5,000 nmoles of SEQ ID NO:25 was studied.
Female 8 week-old SKH1 mice (average weight 25 g) were treated with varying amounts of SEQ ID NO:25 ranging from 15-5,000 nmoles. Generalized activity, behavior and weight gain were evaluated following single intravenous injection of 15-5,000 nmoles of […] on a daily basis for 3 clays following injection. Thereafter, the mice were monitored three times per week for 8 weeks.

sciatic nerves [8] = experiment: Dose response of peptide binding (nerve to muscle contrast ratio); format: in vivo, mice; settings: 5,000 nmoles, at 2 hours
Description: To determine the dose response of peptide binding, the nerve to muscle contrast ratio was measured as a function of the amount of peptide administered (FIG. 4D).
Female 8 week-old SKH1 mice (average weight 25 g) were treated with varying amounts of SEQ ID NO:25 ranging from […]. After a 2 hour washout period, mice were sacrificed and sciatic nerves exposed. Nerves and adjacent non-nerve tissue were delineated with Image 3 and relative fluorescence was measured. Quantification of fluorescence was then performed following subtraction of dark current and normalizing to a standard. For the mice injected with 5,000 nmoles of SEQ ID NO:4, it was noted that background fluorescence was still very high at 2 hours, making the contrast ratio low even though the absolute nerve fluorescence was high. For these mice, the skin incisions were repaired and the mice were allowed to awaken from anesthesia, then at 6 hours following initial SEQ ID NO:4 administration, the mice were sacrificed and the sciatic nerves exposed and analyzed as above.

dissected nerve tissue = experiment: In vitro nerve binding: dissected nerve tissue incubated with peptide; set-up: species or system mice; settings: 100 nM peptide, one hour incubation
sciatic nerve [9] = experiment: Histology: localization of binding in nerves of thy1-YFP transgenic mice; format: in vivo; settings: mouse, in vivo
Source text: To evaluate the localization of SEQ ID NO:4 binding in nerves, we treated thy1-YFP transgenic mice whose axons are genetically encoded with YFP under a neuron specific promoter (Feng et al, Imaging neuronal subsets in transgenic mice expressing multiple spectral variants of GFP. Neuron, 2000) with SEQ ID NO:31. […] These deeper nerve structures were not easily seen either with brightfield (FIG. 5A, insert) or YFP (FIG. 5B, insert) imaging. To evaluate the localization of SEQ ID NO:4 binding on a cellular level, we imaged cryosections (3-5 μm) of nerves and attached muscles from thy1-YFP animals treated with SEQ ID NO:31.

sciatic nerve conduction = settings: mouse, in vivo
Description: Maximal compound muscle action potential amplitude (CMAP) and nerve conduction latency were measured as described in Osuchowski et al, Noninvasive model of sciatic nerve conduction in healthy and septic mice: reliability and normative data, Muscle Nerve, 2009), Briefly, control female 8 week-old SKH1 mice and mice treated with SEQ ID NO:25 were anesthetized with ketamine-midazolam and placed in a prone position. CMAP potentials were evoked (Grass stimulator) with stimulating electrode (Medtronics) placed 2 mm lateral to the midline. The recording electrode was an ear-clip electrode (Life-tech.com) placed on the digits of the hind foot and the reference electrode was placed on the heel of the foot. Maximal CMAPs were generated by gradually increasing the stimulation (5-10V, 1 pulse per second, paired, 0.5-2 sec duration) until a maximal, artifact free tracing was obtained. The CMAP traces were captured on a digital oscilloscope (Tektronic). Nerve conduction latency was measured from the beginning of the stimulation to the start of the upslope. CMAP amplitude was measured from the start of the upslope to the peak.

MBP = tested on: MBP
Description: To test the nerve binding affinity of each of the isolated peptide sequences in vitro, dissected nerve tissue was removed from mice and incubated for one hour with 100 nM of each peptide, including a control peptide made up of amino acids that were contained within the various phages selected and sequenced, but in a mixed-up order and designed without repeating any single amino acid except for glycine (which was added to the C-terminus as a flexible linker).

Compound: CC(=O)N[C@@H](CO)C(=O)N[C@@H](Cc1c[nH]cn1)C(=O)N[C@@H](CO)C(=O)N[C@@H](CC(N)=O)C(=O)N[C@H](C(=O)N[C@@H](CCC(N)=O)C(=O)N[C@H](C(=O)N[C@@H](CC(C)C)C(=O)N[C@@H](C)C(=O)N[C@@H](CCCCN)C(=O)N[C@@H](C)C(=O)N1CCC[C@H]1C(=O)N[C@@H](CCC(=O)O)C(=O)N[C@@H](Cc1c[nH]cn1)C(=O)N[C@H](C(=O)NCC(=O)N[C@@H](CCCCNC(=O)c1ccc2c(c1)C(=O)OC21c2ccc(O)cc2Oc2cc(O)ccc21)C(N)=O)[C@@H](C)O)[C@@H](C)O)[C@@H](C)O [SEQ ID NO:25, acetyl-SHSNTQTLAKAPEHTGK(5,6FAM)-amide] (Ac-SHSNTQTLAKAPEHTGK(5FAM)-NH2)
native peptide detectable in urine of intravenously injected mice ([1]; LC-MS): none | only fluorescently labeled entity identified in urine ([1]; MALDI): lysine-FAM | systemic survey of nerves labeled (sciatic nerves [2]; facial nerve, brachial plexus, sciatic nerve): all nerves were brightly labeled | binding to human nerves as compared to adjacent muscle ([3]; 50 μM for 15 minutes): Selective binding | pattern of nerve binding in human tissue ([3]; tissue sections): connective tissue surrounding the nerve, i.e. epineurium, perineurium, and endoneurium | nerve labeling compared to contralateral control nerve (sciatic nerve [4]; 1 day after crush injury): intact | decrease of nerve labeling compared to contralateral control nerve (sciatic nerve [4]; 3 days after crush injury): 40% | nerve labeling compared to contralateral control nerve (sciatic nerve [4]; 7 days after crush injury): returned to control levels | nerve fluorescence compared to contralateral control side (sciatic nerve [4]; immediately following nerve devascularization): highly diminished | time at which useful contrast between nerve and surrounding muscle begins to develop ([5]; after intravenous injection): 2 to 3 h | nerve to muscle contrast ratio ([5]; by 4-5 hours post-injection): 8-10 fold | visible contrast between nerve and muscle ([5]; by 24 hrs post-injection): all visible contrast between nerve and muscle had disappeared | time of highest muscle fluorescence ([5]; mouse, in vivo, iv): highest immediately following intravenous administration | time of peak nerve fluorescence post-administration ([5]; mouse, in vivo, iv): around 10 minutes | Nerve contrast (sciatic nerves [6]; derivatives of peptide SEQ ID NO: 4): High | generalized activity, behavior and weight gain versus uninjected/control mice [7]: did not have any apparent changes

nerve to muscle contrast ratio (sciatic nerves [8]): low | colocalization of labeling with myelin or axons (sciatic nerve [9]): does not appear to colocalize | colocalization of labeling with myelin or axons (sciatic nerve [9]; listed as SEQ ID NO: 4): does not colocalize
Compound: NTQTLAKAPEHT (peptide that specifically binds to a neuron, nerve, or component of either) [SEQ ID NO:4]
biodistribution following systemic administration (organ fluorescence uptake) ([1]; mouse, in vivo): accumulated in the kidney and was excreted into the urine | labeling of nerves in the central nervous system (CNS) (sciatic nerves [2]; mouse, in vivo): no evidence of labeling | nerve labeling after injury (sciatic nerve [4]; 3 days following injury): diminished | nerve labeling compared to contralateral control nerve (sciatic nerve [4]; 7 days after crush injury): recovers | nerve fluorescence as a function of distance from crush site (sciatic nerve [4]; mouse, in vivo): does not significantly diminish | uptake/binding to dissected nerve tissue compared to no peptide or control peptide (dissected nerve tissue): two-fold increase over control to no difference from control | nerve fluorescence relative to adjacent non-neural tissue (sciatic nerves [6]; FAM-labeled peptide intravenously, living mice, exposed sciatic nerves, after wash-out): 4 fold | nerve to muscle contrast (sciatic nerves [6]; living mice, after wash-out): best nerve to non-nerve contrast | shape of the CMAP curve versus control animals (sciatic nerve conduction): similar | generalized activity, behavior and weight gain versus uninjected/control mice [7]: similar

Compound: TYTDWLNFWAWP (peptide that specifically binds to a neuron, nerve, or component of either) [SEQ ID NO:2]
uptake/binding to dissected nerve tissue compared to no peptide or control peptide (dissected nerve tissue): little increase | nerve to muscle contrast (sciatic nerves [6]; living mice, after wash-out): little significant nerve-to muscle contrast | increase in binding to MBP crosslinked beads compared to control beads (with no MBP) (MBP): 10 fold
